Where a SMILES comes first, the peptide text is derived from it. [ ]: non-standard residue; d: D form. pGlu = O=C1CC[C@@H](C(=O)O)N1; Thz = O=C(O)[C@@H]1CSCN1
Assays:
[1] = target: T1, Progesterone receptor (Homo sapiens, UniProt P06401); assay type: functional
T1 sequence (P06401 whole entry): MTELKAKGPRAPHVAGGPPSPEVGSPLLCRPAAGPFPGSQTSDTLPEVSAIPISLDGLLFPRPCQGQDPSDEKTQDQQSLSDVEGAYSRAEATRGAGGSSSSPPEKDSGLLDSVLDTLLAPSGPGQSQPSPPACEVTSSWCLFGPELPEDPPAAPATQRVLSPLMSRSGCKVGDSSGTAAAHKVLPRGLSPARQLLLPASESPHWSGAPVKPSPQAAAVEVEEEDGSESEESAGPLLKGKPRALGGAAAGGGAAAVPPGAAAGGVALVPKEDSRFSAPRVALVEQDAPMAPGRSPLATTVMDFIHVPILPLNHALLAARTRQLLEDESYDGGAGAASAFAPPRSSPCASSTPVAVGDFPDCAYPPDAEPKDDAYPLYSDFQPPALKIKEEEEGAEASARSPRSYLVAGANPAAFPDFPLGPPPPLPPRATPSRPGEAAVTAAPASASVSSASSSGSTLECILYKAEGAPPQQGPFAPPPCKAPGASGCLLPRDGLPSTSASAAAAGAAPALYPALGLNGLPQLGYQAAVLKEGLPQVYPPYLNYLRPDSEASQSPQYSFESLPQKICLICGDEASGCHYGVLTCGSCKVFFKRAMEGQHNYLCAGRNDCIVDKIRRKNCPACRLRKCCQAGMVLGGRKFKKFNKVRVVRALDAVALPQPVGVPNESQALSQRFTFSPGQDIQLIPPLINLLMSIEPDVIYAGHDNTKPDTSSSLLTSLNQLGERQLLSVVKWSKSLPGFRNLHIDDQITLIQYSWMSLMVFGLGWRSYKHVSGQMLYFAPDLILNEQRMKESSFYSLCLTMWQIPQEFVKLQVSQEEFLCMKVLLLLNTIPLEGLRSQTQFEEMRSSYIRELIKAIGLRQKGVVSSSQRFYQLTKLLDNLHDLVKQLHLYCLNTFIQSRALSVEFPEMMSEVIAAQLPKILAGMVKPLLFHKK

[2] = target: T2, Gastrin/cholecystokinin type B receptor (Homo sapiens, UniProt P32239)
T2 sequence (P32239 whole entry): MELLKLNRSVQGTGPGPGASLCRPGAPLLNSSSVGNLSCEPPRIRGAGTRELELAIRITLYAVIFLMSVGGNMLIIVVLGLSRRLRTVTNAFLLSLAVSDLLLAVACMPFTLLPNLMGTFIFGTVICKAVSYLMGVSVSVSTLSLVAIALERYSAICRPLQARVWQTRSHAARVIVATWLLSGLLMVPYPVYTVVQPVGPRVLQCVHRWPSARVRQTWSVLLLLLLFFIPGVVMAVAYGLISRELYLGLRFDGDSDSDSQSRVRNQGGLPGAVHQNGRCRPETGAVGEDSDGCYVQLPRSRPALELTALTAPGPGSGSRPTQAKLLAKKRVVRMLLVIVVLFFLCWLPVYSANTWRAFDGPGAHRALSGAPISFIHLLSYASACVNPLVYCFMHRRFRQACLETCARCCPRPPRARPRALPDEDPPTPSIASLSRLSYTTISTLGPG

[3] = target: T3, Amine oxidase [flavin-containing] A (Homo sapiens, UniProt P21397); assay type: functional
T3 sequence (P21397 whole entry): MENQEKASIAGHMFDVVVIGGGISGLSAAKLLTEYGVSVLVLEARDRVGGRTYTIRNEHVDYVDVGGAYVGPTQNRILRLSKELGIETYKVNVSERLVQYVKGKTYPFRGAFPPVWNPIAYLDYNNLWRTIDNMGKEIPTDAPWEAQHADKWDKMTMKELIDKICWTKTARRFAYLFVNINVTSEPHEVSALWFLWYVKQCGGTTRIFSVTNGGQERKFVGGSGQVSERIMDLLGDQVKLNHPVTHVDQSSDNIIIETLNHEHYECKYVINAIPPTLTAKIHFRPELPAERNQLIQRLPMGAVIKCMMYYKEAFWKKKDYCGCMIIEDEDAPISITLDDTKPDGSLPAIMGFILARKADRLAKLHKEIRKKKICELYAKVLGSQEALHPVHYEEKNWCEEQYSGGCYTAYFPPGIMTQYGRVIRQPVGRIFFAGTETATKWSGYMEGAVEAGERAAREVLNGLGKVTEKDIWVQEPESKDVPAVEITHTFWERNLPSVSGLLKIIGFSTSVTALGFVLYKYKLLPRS

[4] = target: D(1A) dopamine receptor (Homo sapiens, UniProt P21728); assay type: functional, cell-based
Chain of D(1A) dopamine receptor (P21728 whole entry): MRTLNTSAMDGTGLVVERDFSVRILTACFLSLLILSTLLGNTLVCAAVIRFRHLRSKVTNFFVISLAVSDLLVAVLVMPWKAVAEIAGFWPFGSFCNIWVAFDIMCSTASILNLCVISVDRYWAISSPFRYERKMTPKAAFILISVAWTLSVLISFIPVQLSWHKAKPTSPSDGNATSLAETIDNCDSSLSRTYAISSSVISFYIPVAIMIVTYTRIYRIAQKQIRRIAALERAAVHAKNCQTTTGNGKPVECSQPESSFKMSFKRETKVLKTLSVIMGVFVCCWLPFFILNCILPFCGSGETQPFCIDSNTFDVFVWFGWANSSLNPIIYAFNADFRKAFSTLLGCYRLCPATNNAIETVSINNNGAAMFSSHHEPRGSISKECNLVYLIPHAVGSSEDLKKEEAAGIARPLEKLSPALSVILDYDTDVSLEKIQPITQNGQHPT

[5] = target: Motilin receptor (Homo sapiens, UniProt O43193)
Chain of Motilin receptor (O43193 whole entry): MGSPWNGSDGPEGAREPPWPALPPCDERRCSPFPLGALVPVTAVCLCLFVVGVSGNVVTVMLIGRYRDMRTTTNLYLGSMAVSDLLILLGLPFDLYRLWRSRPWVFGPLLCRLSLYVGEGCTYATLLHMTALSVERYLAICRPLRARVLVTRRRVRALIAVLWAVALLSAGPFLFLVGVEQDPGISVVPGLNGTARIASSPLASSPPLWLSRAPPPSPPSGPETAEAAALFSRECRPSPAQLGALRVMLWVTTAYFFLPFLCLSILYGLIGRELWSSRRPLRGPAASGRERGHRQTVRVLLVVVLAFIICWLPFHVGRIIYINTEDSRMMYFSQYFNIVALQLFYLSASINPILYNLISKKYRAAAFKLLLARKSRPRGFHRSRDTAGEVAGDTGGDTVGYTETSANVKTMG

[6] = target: Voltage-gated inwardly rectifying potassium channel KCNH2 (Homo sapiens, UniProt Q12809); assay type: functional
Chain of Voltage-gated inwardly rectifying potassium channel KCNH2 (Q12809 whole entry): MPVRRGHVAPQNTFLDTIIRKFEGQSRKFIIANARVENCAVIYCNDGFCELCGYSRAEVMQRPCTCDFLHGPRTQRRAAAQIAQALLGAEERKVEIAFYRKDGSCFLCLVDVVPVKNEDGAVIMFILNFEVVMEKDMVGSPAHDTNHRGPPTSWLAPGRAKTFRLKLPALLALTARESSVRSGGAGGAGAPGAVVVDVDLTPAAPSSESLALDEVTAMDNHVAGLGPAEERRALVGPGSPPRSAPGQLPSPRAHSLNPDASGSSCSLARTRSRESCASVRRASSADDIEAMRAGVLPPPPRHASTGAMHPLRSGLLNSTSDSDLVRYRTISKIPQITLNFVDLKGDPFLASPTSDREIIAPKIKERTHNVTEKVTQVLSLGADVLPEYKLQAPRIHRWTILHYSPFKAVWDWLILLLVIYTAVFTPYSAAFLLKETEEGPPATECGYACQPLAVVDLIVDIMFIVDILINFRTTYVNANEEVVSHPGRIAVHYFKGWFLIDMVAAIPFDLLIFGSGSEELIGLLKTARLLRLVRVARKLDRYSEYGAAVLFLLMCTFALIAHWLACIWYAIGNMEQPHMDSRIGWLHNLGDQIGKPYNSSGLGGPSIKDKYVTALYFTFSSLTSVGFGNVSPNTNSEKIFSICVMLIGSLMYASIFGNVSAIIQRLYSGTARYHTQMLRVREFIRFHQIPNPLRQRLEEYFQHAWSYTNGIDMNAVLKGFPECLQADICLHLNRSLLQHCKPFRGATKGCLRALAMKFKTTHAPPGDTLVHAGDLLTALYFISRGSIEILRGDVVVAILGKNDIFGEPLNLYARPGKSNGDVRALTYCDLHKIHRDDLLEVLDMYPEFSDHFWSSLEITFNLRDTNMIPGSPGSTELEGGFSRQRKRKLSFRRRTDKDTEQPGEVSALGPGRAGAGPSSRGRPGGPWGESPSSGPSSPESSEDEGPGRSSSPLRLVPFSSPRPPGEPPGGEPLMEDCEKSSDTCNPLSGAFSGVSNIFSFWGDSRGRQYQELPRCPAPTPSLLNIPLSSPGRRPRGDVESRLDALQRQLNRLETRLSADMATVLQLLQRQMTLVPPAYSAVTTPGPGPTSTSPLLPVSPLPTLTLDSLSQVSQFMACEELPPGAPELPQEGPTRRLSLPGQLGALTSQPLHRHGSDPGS

[7] = target: T4, Neuropeptide Y receptor type 1 (Homo sapiens, UniProt P25929)
T4 sequence (P25929 whole entry): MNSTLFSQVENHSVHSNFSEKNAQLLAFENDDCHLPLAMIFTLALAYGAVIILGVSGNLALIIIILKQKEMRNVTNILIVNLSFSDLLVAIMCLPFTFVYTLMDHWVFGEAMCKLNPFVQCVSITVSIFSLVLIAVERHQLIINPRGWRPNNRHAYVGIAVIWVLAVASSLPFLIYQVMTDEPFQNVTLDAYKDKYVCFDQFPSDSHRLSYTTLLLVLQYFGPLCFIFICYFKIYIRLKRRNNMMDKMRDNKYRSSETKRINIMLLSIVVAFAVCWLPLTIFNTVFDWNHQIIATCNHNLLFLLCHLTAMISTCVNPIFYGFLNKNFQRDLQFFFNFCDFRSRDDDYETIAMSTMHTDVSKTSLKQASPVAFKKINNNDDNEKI

[8] = target: Kappa-type opioid receptor (Homo sapiens, UniProt P41145)
Chain of Kappa-type opioid receptor (P41145 whole entry): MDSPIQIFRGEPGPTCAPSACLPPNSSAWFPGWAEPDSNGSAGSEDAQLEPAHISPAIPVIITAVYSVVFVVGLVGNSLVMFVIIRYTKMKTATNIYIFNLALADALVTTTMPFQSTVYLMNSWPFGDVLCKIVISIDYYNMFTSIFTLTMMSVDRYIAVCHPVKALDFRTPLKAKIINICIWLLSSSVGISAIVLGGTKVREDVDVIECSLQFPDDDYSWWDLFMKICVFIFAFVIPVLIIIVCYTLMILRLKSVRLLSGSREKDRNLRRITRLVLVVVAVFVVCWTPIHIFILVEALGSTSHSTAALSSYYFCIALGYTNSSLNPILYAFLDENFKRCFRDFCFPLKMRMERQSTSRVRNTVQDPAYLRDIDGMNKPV

[9] = target: T5, 5-hydroxytryptamine receptor 1A (Homo sapiens, UniProt P08908); assay type: functional, cell-based
T5 sequence (P08908 whole entry): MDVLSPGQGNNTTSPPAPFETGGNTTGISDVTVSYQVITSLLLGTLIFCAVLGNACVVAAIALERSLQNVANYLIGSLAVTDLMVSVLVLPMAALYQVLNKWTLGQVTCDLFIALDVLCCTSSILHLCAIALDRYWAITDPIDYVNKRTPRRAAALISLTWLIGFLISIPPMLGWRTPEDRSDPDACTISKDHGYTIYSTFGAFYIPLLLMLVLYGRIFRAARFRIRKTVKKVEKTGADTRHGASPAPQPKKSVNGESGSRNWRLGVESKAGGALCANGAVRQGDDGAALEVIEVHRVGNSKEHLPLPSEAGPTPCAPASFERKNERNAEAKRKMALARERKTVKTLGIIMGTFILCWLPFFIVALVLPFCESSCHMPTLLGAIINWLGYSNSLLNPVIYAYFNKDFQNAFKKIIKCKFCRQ
Further: assay procedure not described here.

| Structure (SMILES) | AC50 [1] [µM] | AC50 [2] [µM] | AC50 [3] [µM] | AC50 [4] [µM] | AC50 [5] [µM] | AC50 [6] [µM] | AC50 [7] [µM] | AC50 [8] [µM] | AC50 [9] [µM] |
| --- | --- | --- | --- | --- | --- | --- | --- | --- | --- |
| O=C(CCCN1CCC(O)(c2ccc(Br)cc2)CC1)c1ccc(F)cc1 [BROMPERIDOL] | > 30 | > 30 | > 30 | > 30 | > 30 | 0.23 | > 30 | 10 | > 30 |
| Clc1ccc(CCC(Cn2ccnc2)Sc2c(Cl)cccc2Cl)cc1 (configuration not stated) [BUTOCONAZOLE] | 9.1 | > 30 | > 30 | > 30 | > 30 | 5.9 | > 30 | 1.8 | > 30 |
| CO/N=C(\C(=O)N[C@@H]1C(=O)N2C(C(=O)O)=C(CSc3nc(=O)c(=O)[nH]n3C)CS[C@H]12)c1csc(N)n1 [CEFTRIAXONE] | 23 | > 30 | > 30 | > 30 | > 30 | > 30 | > 30 | > 30 | > 30 |
| CC(CN(C)C)C(C)(O)Cc1ccc(Cl)cc1 (configuration not stated) [CLOBUTINOL] | > 30 | > 30 | > 10 | > 10 | > 10 | 8.45 | > 30 | > 10 | > 10 |
| Oc1ccc(CCNCCCCCCNCCc2ccccc2)cc1O [DOPEXAMINE] | > 30 | > 30 | > 30 | 23 | > 30 | 2.9 | > 30 | 4.3 | > 30 |
| CCN1CC(CCN2CCOCC2)C(c2ccccc2)(c2ccccc2)C1=O (configuration not stated) [DOXAPRAM] | > 30 | > 30 | > 30 | > 30 | > 30 | 10.5 | > 30 | > 30 | > 30 |
| CCc1cc2c(s1)-n1c(C)nnc1CN=C2c1ccccc1Cl [ETIZOLAM] | > 30 | > 30 | > 30 | > 30 | > 30 | > 30 | > 30 | 2.5 | > 30 |
| CCOC(=O)c1ncn2c1CN(C)C(=O)c1cc(F)ccc1-2 [FLUMAZENIL] | > 30 | > 30 | > 30 | > 30 | > 30 | > 30 | > 30 | > 30 | > 30 |
| CC/C=C\C/C=C\C/C=C\C/C=C\C/C=C\CCCC(=O)OCC [ICOSAPENT ETHYL] | 3.5 | > 30 | > 30 | > 30 | > 30 | > 30 | > 30 | > 30 | > 30 |
| NNC(=O)c1ccncc1 [ISONIAZID] | > 30 | > 30 | > 30 | > 30 | > 30 | > 30 | > 30 | > 30 | > 30 |
| COc1ccc(CN2CCN(C(c3ccc(F)cc3)c3ccc(F)cc3)CC2)c(OC)c1OC [LOMERIZINE] | > 30 | > 30 | > 30 | > 30 | > 30 | 0.45 | > 30 | 12 | > 30 |
| O=C(NCCO[N+](=O)[O-])c1cccnc1 [NICORANDIL] | > 30 | > 30 | > 30 | > 30 | > 30 | > 30 | > 30 | > 30 | > 30 |
| O=c1[nH]c2ccccc2n1CCCN1CCN(C(c2ccccc2)c2ccccc2)CC1 [OXATOMIDE] | > 30 | > 30 | > 30 | > 30 | 12 | 0.026 | > 30 | 13 | > 30 |
| c1ccc(C2(N3CCCCC3)CCCCC2)cc1 [PHENCYCLIDINE] | > 30 | > 30 | > 30 | > 30 | > 30 | 12 | > 30 | > 30 | > 30 |
| OC[C@H]1O[C@@H](Oc2cc(O)cc(/C=C/c3ccc(O)cc3)c2)[C@H](O)[C@@H](O)[C@@H]1O [PICEID] | > 30 | > 30 | > 30 | > 30 | > 30 | > 30 | > 30 | > 30 | > 30 |
| O=C1CC[C@@H](C(=O)N2CSC[C@H]2C(=O)O)N1 [PIDOTIMOD] ([pGlu]-[Thz]-OH) | > 30 | > 30 | > 30 | > 30 | > 30 | > 30 | > 30 | > 30 | > 30 |
| COc1cc(C(=O)OCc2cccc(COC(=O)c3cc(OC)c(OC)c(OC)c3)n2)cc(OC)c1OC [PIROZADIL] | > 30 | > 30 | > 30 | > 30 | > 30 | > 30 | > 30 | > 30 | > 30 |
| CCC(NC(C)C)C(O)c1ccc(O)c2[nH]c(=O)ccc12 (configuration not stated) [PROCATEROL] | > 30 | > 30 | > 30 | > 30 | > 30 | > 30 | > 30 | > 30 | > 30 |
